Seven compounds from patent publication US10059689B2, “Substituted heteroaryl compounds and methods of use” (Sunshine Lake Pharma Co., Ltd., priority 2014, dated 2018) can be followed below.

One test deals with T1, JAK1 (h) (Homo sapiens, UniProt P23458).
T1 construct: purchased Millipore UK Ltd (contract assay service)
Kind of test: JAK1 (h) kinase assay. It is filed as biochemical.

The next test deals with T2, JAK3 (h) (Homo sapiens, UniProt P52333).
T2 construct: purchased Millipore UK Ltd (contract assay service)
T2 sequence (P52333 1-1124): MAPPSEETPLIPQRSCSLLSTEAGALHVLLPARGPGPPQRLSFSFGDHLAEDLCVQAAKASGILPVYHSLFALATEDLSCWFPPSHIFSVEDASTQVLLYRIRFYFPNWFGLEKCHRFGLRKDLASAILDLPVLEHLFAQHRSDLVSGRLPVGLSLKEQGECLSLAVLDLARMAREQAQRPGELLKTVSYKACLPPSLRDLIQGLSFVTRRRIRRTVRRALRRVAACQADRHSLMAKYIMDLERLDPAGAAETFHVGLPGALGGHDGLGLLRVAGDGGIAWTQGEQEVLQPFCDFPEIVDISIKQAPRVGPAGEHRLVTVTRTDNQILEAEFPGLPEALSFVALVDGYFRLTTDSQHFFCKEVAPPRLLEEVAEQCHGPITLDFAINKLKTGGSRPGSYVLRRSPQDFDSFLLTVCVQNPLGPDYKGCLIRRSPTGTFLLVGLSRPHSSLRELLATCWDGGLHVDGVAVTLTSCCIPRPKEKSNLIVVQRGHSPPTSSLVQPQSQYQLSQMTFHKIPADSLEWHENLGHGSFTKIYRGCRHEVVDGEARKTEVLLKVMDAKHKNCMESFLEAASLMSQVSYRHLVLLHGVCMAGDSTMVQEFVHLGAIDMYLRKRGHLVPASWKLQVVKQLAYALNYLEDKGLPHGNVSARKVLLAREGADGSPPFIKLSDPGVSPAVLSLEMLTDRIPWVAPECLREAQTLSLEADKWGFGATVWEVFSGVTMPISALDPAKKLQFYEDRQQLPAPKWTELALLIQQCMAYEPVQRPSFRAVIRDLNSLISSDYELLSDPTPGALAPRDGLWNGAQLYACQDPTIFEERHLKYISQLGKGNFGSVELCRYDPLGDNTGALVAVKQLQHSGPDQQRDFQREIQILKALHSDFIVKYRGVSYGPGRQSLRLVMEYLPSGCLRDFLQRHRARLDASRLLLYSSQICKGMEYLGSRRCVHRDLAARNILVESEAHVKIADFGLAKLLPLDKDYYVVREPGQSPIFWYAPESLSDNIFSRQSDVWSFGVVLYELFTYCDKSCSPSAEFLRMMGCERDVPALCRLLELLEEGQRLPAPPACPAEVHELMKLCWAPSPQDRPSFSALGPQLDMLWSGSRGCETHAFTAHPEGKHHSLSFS
The test is described as follows: JAK3 (h) kinase assay. It is filed as biochemical. On the procedure:
Kinase assays can be performed by measurement of incorporation of γ-33P ATP into immobilized myelin basic protein (MBP). High binding white 384 well plates (Greiner) are coated with MBP (Sigma #M-1891) by incubation of 60 μL/well of 20 μg/mL MBP in Tris-buffered saline (TBS; 50 mM Tris pH 8.0, 138 mM NaCl, 2.7 mM KCl) for 24 h at 4° C. Plates are washed 3× with 100 μL TBS. Kinase reactions are carried out in a total volume of 34 μL in kinase buffer (according to the need to make, for example, 5 mM Hepes pH 7.6, 15 mM NaCl, 0.01% bovine gamma globulin (Sigma #I-5506), 10 mM MgCl2, 1 mM DTT, 0.02% TritonX-100). Compound dilutions are performed in DMSO and added to assay wells to a final DMSO concentration of 1%. Each data point is measured in duplicate, and at least two duplicate assays are performed for each individual compound determination. Enzyme is added to final concentrations of 10 nM or 20 nM, for example. A mixture of unlabeled ATP and γ-33P ATP is added to start the reaction (2×10^6 cpm of γ-33P ATP per well (3000 Ci/mmole) and 10 μM unlabeled ATP, typically. The reactions are carried out for 1 h at room temperature with shaking Plates are washed 7× with TBS, followed by the addition of 50 μL/well scintillation fluid (Wallac). Plates are read using a Wallac Trilux counter. This is only one format of such assays; various other formats are possible, as known to one skilled in the art.
The above assay procedure can be used to determine the IC50 for inhibition and/or the inhibition constant, Ki. The IC50 is defined as the concentration of compound required to reduce the enzyme activity by 50% under the condition of the assay. The IC50 value is estimated by preparing a 10 point curve using a ½ log dilution series (for example, a typical curve may be prepared using the following compound concentrations: 3 μM, 1 μM, 0.3 μM, 0.1 μM, 0.03 μM, 0.01 μM, 0.003 μM, 0.001 μM, 0.0003 μM and 0 μM).
JAK3 (h) is incubated with 8 mM MOPS pH 7.0, 0.2 mM EDTA, 500 μM GGEEEEYFELVKKKK, 10 mM MgAcetate and [γ-^33P-ATP] (specific activity approx. 500 cpm/pmol, concentration as required). The reaction is initiated by the addition of the MgATP mix. After incubation for 40 minutes at room temperature, the reaction is stopped by the addition of 3% phosphoric acid solution. 10 μL of the reaction is then spotted onto a P30 filtermat and washed three times for 5 minutes in 75 mM phosphoric acid and once in methanol prior to drying and scintillation counting.
The kinase assays described herein were performed at Millipore UK Ltd, Dundee Technology Park, Dundee DD2 1SW, UK.

T1 sequence (P23458 whole entry): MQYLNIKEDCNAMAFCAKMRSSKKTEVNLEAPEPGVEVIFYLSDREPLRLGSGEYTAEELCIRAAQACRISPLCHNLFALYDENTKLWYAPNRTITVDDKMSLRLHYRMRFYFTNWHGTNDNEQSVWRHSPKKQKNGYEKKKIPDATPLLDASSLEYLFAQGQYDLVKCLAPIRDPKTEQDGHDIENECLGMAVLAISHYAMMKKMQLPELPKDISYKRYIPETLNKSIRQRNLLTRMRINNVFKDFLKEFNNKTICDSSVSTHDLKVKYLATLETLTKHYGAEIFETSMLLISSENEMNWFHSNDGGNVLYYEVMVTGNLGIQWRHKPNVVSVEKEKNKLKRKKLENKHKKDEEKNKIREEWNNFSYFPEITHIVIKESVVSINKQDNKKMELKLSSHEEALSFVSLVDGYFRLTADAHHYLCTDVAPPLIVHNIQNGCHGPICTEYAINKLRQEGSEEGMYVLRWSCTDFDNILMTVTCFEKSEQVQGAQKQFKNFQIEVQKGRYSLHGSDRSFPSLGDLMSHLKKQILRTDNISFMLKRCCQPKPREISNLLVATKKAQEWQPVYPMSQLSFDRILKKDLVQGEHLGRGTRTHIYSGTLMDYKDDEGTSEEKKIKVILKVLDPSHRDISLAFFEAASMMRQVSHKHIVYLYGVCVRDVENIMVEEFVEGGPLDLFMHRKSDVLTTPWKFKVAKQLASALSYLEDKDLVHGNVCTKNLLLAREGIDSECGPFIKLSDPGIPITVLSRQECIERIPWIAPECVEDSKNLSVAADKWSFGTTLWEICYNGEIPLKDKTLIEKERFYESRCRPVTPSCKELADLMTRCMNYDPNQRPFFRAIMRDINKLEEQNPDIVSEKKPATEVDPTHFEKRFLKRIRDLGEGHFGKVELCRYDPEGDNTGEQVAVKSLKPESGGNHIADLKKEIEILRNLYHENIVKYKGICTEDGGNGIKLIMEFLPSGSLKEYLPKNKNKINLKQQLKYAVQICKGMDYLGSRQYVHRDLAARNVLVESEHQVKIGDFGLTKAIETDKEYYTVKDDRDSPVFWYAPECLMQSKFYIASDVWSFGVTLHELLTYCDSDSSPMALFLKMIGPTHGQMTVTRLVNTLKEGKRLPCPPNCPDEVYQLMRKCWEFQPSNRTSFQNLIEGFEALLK

For `Cn1cc(Nc2ncc(Cl)c(NC3CCN(c4ccc(C#N)cn4)CC3)n2)cn1` [Ex. 1, 6-(4-((5-chloro-2-((1-methyl-1H-pyrazol-4-yl)amino)pyrimidin-4-yl)amino)piperidin-1-yl)nicotinonitrile], the IC50 on JAK1 (h) was below 0.3 nM.
Consider `Cc1nn(C)cc1Nc1ncc(Cl)c(NC2CCN(c3ccc(C#N)nn3)CC2)n1` [Ex. 11, 6-(4-((5-chloro-2-((1,3-dimethyl-1H-pyrazol-4-yl)amino)pyrimidin-4-yl)amino)piperidin-1-yl)pyridazine-3-carbonitrile], for which the IC50 was 0.4 nM against JAK1 (h) and 263 nM at JAK3 (h).
For `Cc1c2ccc(Nc3ncc(Cl)c(NC4CCN(c5ccc(C#N)cn5)CC4)n3)cc2nn1C` [Ex. 4], in that order: 0.3 nM and 21 nM.
Take `Cc1c2ccc(Nc3ncc(Cl)c(NC4CCN(c5ccc(C#N)nn5)CC4)n3)cc2nn1C` [Ex. 12, 6-(4-((5-chloro-2-((2,3-dimethyl-2H-indazol-6-yl)amino)pyrimidin-4-yl)amino)piperidin-1-yl)pyridazine-3-carbonitrile]: the IC50 against JAK1 (h) was below 0.3 nM; on JAK3 (h) it was 20 nM.
On the same counts, the results for `CN(c1nc(Nc2cnn(C)c2)ncc1Cl)C1CCN(c2ccc(C#N)cn2)CC1` [Ex. 5, 6-(4-((5-chloro-2-((1-methyl-1H-pyrazol-4-yl)amino)pyrimidin-4-yl) (methyl)amino)piperidin-1-yl)nicotinonitrile] are 0.8 nM and 13 nM.
On the same counts, the results for `Cc1nn(C)cc1Nc1ncc(Cl)c(NC2CCN(c3ccc(C#N)cn3)CC2)n1` [Ex. 10, 6-(4-((5-chloro-2-((1,3-dimethyl-1H-pyrazol-4-yl)amino)pyrimidin-4-yl)amino)piperidin-1-yl)nicotinonitrile] are below 0.3 nM and 82 nM.
On the same counts, the results for `Cc1cc(Nc2ncc(Cl)c(NC3CCN(c4ccc(C#N)nn4)CC3)n2)nn1C` [Ex. 13, 6-(4-((5-chloro-2-((1,5-dimethyl-1H-pyrazol-3-yl)amino)pyrimidin-4-yl)amino)piperidin-1-yl)pyridazine-3-carbonitrile] are 0.4 nM and 73 nM.
